Reference: ChEMBL document CHEMBL6153141, “Design, Synthesis, and Mechanism Study of Novel BMX Inhibitors Based on the Core of 1,3,5-Triazin-2-Amine for the Treatment of Gastric Carcinoma” (J Med Chem, 2025)
Calls of active or inactive are those of the source. The rule behind the calls is not given here.

Key:
HCC827 = assay: cells; settings: Homo sapiens, HCC827, 72 h
Description: Anticancer activity against human HCC827 cells assessed as inhibition of cell proliferation incubated for 72 hrs by MTT assay

PC-9 = assay: cells; settings: Homo sapiens, PC-9, 72 h
Description: Anticancer activity against human PC-9 cells assessed as inhibition of cell proliferation incubated for 72 hrs by MTT assay

DU-145 = assay: cells; settings: Homo sapiens, DU-145, 72 h
Description: Anticancer activity against human DU-145 cells assessed as inhibition of cell proliferation incubated for 72 hrs by MTT assay

CWR22R = assay: cells; settings: Homo sapiens, 22Rv1, 72 h
Description: Anticancer activity against human 22Rv1 cells assessed as inhibition of cell proliferation incubated for 72 hrs by MTT assay

A549 = assay: cells; settings: Homo sapiens, A549, 72 h
Description: Anticancer activity against human A549 cells assessed as inhibition of cell proliferation incubated for 72 hrs by MTT assay

NCI-H1975 = assay: cells; settings: Homo sapiens, NCI-H1975, 72 h
Description: Anticancer activity against human NCI-H1975 cells assessed as inhibition of cell proliferation incubated for 72 hrs by MTT assay

NCI-H460 = assay: cells; settings: Homo sapiens, NCI-H460, 72 h
Description: Anticancer activity against human NCI-H460 cells assessed as inhibition of cell proliferation incubated for 72 hrs by MTT assay

PC-3 = assay: cells; settings: Homo sapiens, PC-3, 72 h
Description: Anticancer activity against human PC-3 cells assessed as inhibition of cell proliferation incubated for 72 hrs by MTT assay

HeLa = assay: Anticancer activity against human HeLa cells assessed as inhibition of cell proliferation incubated for 72 hrs by MTT assay; assay type: functional, cell-based
C6661 = assay: Anticancer activity against human C666-1 cells assessed as inhibition of cell proliferation incubated for 72 hrs by MTT assay; assay type: functional, cell-based; settings: C6661, 72 h
[1] = Cytotoxicity against human GES1 cells assessed as inhibition of cell proliferation incubated for 72 hrs by MTT assay; assay type: toxicity, cell-based
[2] = Cytotoxicity against human L02 cells assessed as inhibition of cell proliferation incubated for 72 hrs by MTT assay; assay type: toxicity, cell-based
MGC-803 = assay: Anticancer activity against human MGC-803 cells assessed as inhibition of cell proliferation incubated for 72 hrs by MTT assay; assay type: functional, cell-based; settings: MGC-803, 72 h
[3] = Cytotoxicity against HEK293 cells assessed as inhibition of cell proliferation incubated for 72 hrs by MTT assay; assay type: toxicity, cell-based; settings: human
AGS = assay: Anticancer activity against human AGS cells assessed as inhibition of cell proliferation incubated for 72 hrs by MTT assay; assay type: functional, cell-based
HGC-27 [4] = assay: Antitumor activity against human HGC-27 cells xenografted in female BALB/c nude mouse model assessed as reduction in tumor growth at 15 mg/kg/day, ip administered for 21 days relative to control; assay type: functional; design: scale not given: the % may be the effect or the level left; settings: time 21 day
HCT-116 = assay: Anticancer activity against human HCT-116 cells assessed as inhibition of cell proliferation incubated for 72 hrs by MTT assay; assay type: functional, cell-based; settings: HCT-116, 72 h
MCF7 = assay: Anticancer activity against human MCF7 cells assessed as inhibition of cell proliferation incubated for 72 hrs by MTT assay; assay type: functional, cell-based; settings: MCF7, 72 h
HONE1 cell line = assay: Anticancer activity against human HONE1 cell line assessed as inhibition of cell proliferation incubated for 72 hrs by MTT assay; assay type: functional, cell-based; settings: HONE1, 72 h
MDA-MB-231 = assay: Anticancer activity against human MDA-MB-231 cells assessed as inhibition of cell proliferation incubated for 72 hrs by MTT assay; assay type: functional, cell-based; settings: MDA-MB-231, 72 h
HepG2 = assay: Anticancer activity against human HepG2 cells assessed as inhibition of cell proliferation incubated for 72 hrs by MTT assay; assay type: functional, cell-based; settings: HepG2, 72 h
[5] = Cytotoxicity against H9c2 cells assessed as inhibition of cell proliferation incubated for 72 hrs by MTT assay; assay type: toxicity, cell-based; settings: rat
4T1 = assay: Anticancer activity against mouse 4T1 cells assessed as inhibition of cell proliferation incubated for 72 hrs by MTT assay; assay type: functional, cell-based; settings: 4T1, 72 h
HGC-27 [6] = assay: Anticancer activity against human HGC-27 cells assessed as inhibition of cell proliferation incubated for 72 hrs by MTT assay; assay type: functional, cell-based; settings: HGC-27, 72 h
HGC-27 [7] = assay: Antitumor activity against human HGC-27 cells xenografted in female BALB/c nude mouse model assessed as reduction in tumor weight at 15 mg/kg/day, ip administered for 21 days; assay type: functional, organism-based; settings: time 21.0 day
[8] = target: Tyrosine-protein kinase BTK (Homo sapiens, UniProt Q06187); assay: Inhibition of BTK (unknown origin)
Chain of Tyrosine-protein kinase BTK (Q06187 whole entry): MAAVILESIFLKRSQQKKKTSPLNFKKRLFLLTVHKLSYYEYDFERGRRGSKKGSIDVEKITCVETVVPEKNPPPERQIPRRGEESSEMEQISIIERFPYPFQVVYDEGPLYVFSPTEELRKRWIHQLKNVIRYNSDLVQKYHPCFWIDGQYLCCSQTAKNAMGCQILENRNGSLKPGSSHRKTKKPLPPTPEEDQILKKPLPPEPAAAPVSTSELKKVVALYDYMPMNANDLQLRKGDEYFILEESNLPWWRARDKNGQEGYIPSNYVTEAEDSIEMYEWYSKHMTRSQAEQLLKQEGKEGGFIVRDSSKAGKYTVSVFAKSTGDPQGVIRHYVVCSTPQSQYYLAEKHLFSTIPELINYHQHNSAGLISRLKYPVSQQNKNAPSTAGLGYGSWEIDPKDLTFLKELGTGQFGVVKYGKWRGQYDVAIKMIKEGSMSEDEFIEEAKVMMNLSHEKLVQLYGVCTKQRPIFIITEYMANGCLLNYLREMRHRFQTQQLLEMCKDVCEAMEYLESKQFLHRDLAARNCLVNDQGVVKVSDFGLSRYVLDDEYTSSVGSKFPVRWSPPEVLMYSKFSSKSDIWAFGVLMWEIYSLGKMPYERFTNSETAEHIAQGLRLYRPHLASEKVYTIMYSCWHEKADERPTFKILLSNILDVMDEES

Row | SMILES | IC50 (HCC827) | IC50 (PC-9) | IC50 (DU-145) | IC50 (CWR22R) | IC50 (A549) | IC50 (NCI-H1975) | IC50 (NCI-H460) | IC50 (PC-3) | also measured
1 | C=CS(=O)(=O)N1CCC[C@@H](Nc2nc(N)nc(Nc3ccc(Oc4ccccc4)cc3)n2)C1 | 5.2 µM | > 32 µM | > 32 µM | > 32 µM | > 32 µM | 29.8 µM | > 32 µM | > 32 µM | –
2 | C=CC(=O)N1CCC[C@@H](n2nc(-c3ccc(Oc4ccccc4)cc3)c3c(N)ncnc32)C1 [IBRUTINIB] | 0.1 µM | 3.1 µM | 5.3 µM | 26.7 µM | 17.6 µM | 5.6 µM | 12.7 µM | 21.1 µM | IC50 (HeLa): 28.1 µM; IC50 (C6661): 17 µM; IC50 at 72 h [1]: 28.6 µM; IC50 at 72 h [2]: > 32 µM; IC50 (MGC-803): 9.2 µM; IC50 at 72 h [3]: > 32 µM; IC50 (AGS): 10.4 µM; Activity (HGC-27 [4]): 17.03%; IC50 (HCT-116): 17.7 µM; IC50 (MCF7): 29.9 µM; IC50 (HONE1 cell line): 24.5 µM; IC50 (MDA-MB-231): 28.9 µM; IC50 (HepG2): > 32 µM; IC50 at 72 h [5]: > 32 µM; IC50 (4T1): 9.3 µM; IC50 (HGC-27 [6]): 16 µM; Activity (HGC-27 [7]): Active
3 | C=CS(=O)(=O)N1CC[C@@H](Nc2nc(N)nc(Nc3ccc(Oc4ccccc4)cc3)n2)C1 | 12.6 µM | > 32 µM | 22.4 µM | > 32 µM | > 32 µM | > 32 µM | > 32 µM | > 32 µM | –
4 | C=CS(=O)(=O)N1CCC[C@@H](Nc2nc(N)nc(Nc3cccc(OCc4ccccc4)c3)n2)C1 | 3 µM | 21.9 µM | 9.7 µM | 23.7 µM | 25 µM | 4.3 µM | 14.3 µM | 18.6 µM | IC50 (HeLa): 14.5 µM; IC50 (C6661): 18.9 µM; IC50 at 72 h [1]: 13.9 µM; IC50 at 72 h [2]: > 32 µM; IC50 (MGC-803): 13.4 µM; IC50 at 72 h [3]: > 32 µM; IC50 (AGS): 9.2 µM; IC50 (HCT-116): 19.6 µM; IC50 (MCF7): 18.4 µM; IC50 (HONE1 cell line): 14 µM; IC50 (MDA-MB-231): 12.1 µM; IC50 (HepG2): > 32 µM; IC50 at 72 h [5]: > 32 µM; IC50 (4T1): 17.5 µM; IC50 (HGC-27 [6]): 15.6 µM
5 | C=CS(=O)(=O)N1CCC[C@@H](Nc2nc(N)nc(Nc3ccc(OCc4ccccc4)cc3)n2)C1 | > 32 µM | > 32 µM | 19 µM | > 32 µM | > 32 µM | > 32 µM | > 32 µM | > 32 µM | –
6 | Cn1cc(Nc2nc(N)nc(-c3cccc(-n4ccc5cc(C6CC6)ccc5c4=O)c3CO)n2)cn1 | – | – | – | – | – | – | – | – | IC50 [8]: 4.2 nM
7 | C=CS(=O)(=O)N1CCC(CNc2nc(N)nc(Nc3ccc(Oc4ccccc4)cc3)n2)CC1 | 29.3 µM | > 32 µM | > 32 µM | > 32 µM | > 32 µM | > 32 µM | > 32 µM | > 32 µM | –
